In patent publication US20230136600A1, “Method and device for screening antigen epitope polypeptide” (priority 2020, published 2023):

Tests used:
[1] = system: novel coronavirus (live coronavirus), vero cells; assay: In-vitro live virus neutralization experiment with serum of immunized mice (CPE method); assay type: in vivo, SARS-CoV-2
[2] = system: Balb/c mice; assay: Polypeptide chip-based vaccine immunogenicity scoring system; assay type: in vivo; design: key to A2: whether the 95 percentile of the last sampling is increased compared with the end point: Y = rise; N = no rise; settings: for A: 95 percentile grouping number score / B: Mouse performance score: total score = 5
[3] = Embodiment III, polypeptide-KLH
[4] = Embodiment III, polypeptide-KLH, Mix1-10
[5] = Embodiment III, polypeptide-KLH, value of the whole mix
[6] = adjuvant AddaVax, 7 peptides co-immunized in mice
[7] = adjuvant Adju-Phos, 7 peptides co-immunized in mice
[8] = adjuvant Alhydrogel, 7 peptides co-immunized in mice
[9] = adjuvant Imjet Alumn, 7 peptides co-immunized in mice
[10] = adjuvant MA103A, 7 peptides co-immunized in mice
[11] = adjuvant MA103B, 7 peptides co-immunized in mice

Sequence: SNLKPFER (SARS-CoV-2) [SEQ ID NO:36]
- Neutralizing antibody positive rate (%) ([1]; Embodiment I: single peptide 100 μg + MF59 at Day 0, 14, 28, Balb/c mice, serum Day 35): 40%
- Neutralizing activity of serum to the novel coronavirus (in words) ([1]; Embodiment I: single peptide vaccines + MF59): optimal neutralization effect
- A2: whether the 95 percentile of the last sampling is increased compared with the end point ([2]; Embodiment II, Combination 2): Y
- B1: D 0-D 14 95 percentile rise in the number of mice ([2]; Embodiment II, Combination 2): 5
- B2: D 0-D 21 95 percentile rise in the number of mice ([2]; Embodiment II, Combination 2): 5
- B3: D 14-D 21 95 percentile rise in the number of mice ([2]; Embodiment II, Combination 2): 0
- B4: D 21-D 28 95 percentile rise in the number of mice ([2]; Embodiment II, Combination 2): 2
- Total single peptide ([2]; Embodiment II, Combination 2, A*3 + B*2 + C*1): 11.8
- A: 95 percentile grouping number score ([2]; Embodiment II, Combination 2): 1.5
- B: Mouse performance score ([2]; Embodiment II, Combination 2): 3.4
- A1: difference between a highest median and a D 0 median (95 percentile) ([2]; Embodiment II, mice immunized with Combination 2): 0.1
- B1: D 0-D 14 95 percentile rise in the number of mice [2, 3]: 3
- B2: D 0-D 21 95 percentile rise in the number of mice [2, 3]: 2
- B3: D 14-D 21 95 percentile rise in the number of mice [2, 3]: 0
- B4: D 21-D 28 95 percentile rise in the number of mice [2, 3]: 2
- A1: difference between a highest median and a D 0 median (95 percentile) [2, 4]: 0.10
- A2: whether the 95 percentile of the last sampling is increased compared with the end point [2, 4]: Y
- Total single peptide ([2]; Embodiment III, polypeptide-KLH, A*3 + B*2 + C*1): 17.4
- A: 95 percentile grouping number score [2, 3]: 4.5
- B: Mouse performance score [2, 3]: 1.7
- C1: #A timing-sequence response peptide fragment set [2, 5]: 511
- C2: #B vaccine specificity peptide fragment set [2, 5]: 364
- C3: Intersection of A and B [2, 5]: 1
- C4: Percentage of the intersection in set B [2, 5]: 0.275
- C: Timing-sequence response and specificity score [2, 5]: 0.5
- 1) 95 percentile grouping number A [2, 6]: 3.5
- 1) 95 percentile grouping number A1 [2, 6]: 0.04
- 2) Mouse performance B [2, 6]: 2.5
- 2) Mouse performance B1 [2, 6]: 3
- 2) Mouse performance B2 [2, 6]: 4
- 2) Mouse performance B3 [2, 6]: 2
- 3) Timing-sequence response and specificity C [2, 6]: 0
- 3) Timing-sequence response and specificity C1 [2, 6]: 237
- 3) Timing-sequence response and specificity C2 [2, 6]: 1244
- 3) Timing-sequence response and specificity C3 [2, 6]: 0
- 3) Timing-sequence response and specificity C4 [2, 6]: 0.000
- Total single peptide [2, 6]: 15.5
- 1) 95 percentile grouping number A [2, 7]: 3.5
- 1) 95 percentile grouping number A1 [2, 7]: 0.05
- 2) Mouse performance B [2, 7]: 1.8
- 2) Mouse performance B1 [2, 7]: 2
- 2) Mouse performance B2 [2, 7]: 2
- 2) Mouse performance B3 [2, 7]: 2
- 3) Timing-sequence response and specificity C [2, 7]: 0
- 3) Timing-sequence response and specificity C1 [2, 7]: 203
- 3) Timing-sequence response and specificity C2 [2, 7]: 1244
- 3) Timing-sequence response and specificity C3 [2, 7]: 0
- 3) Timing-sequence response and specificity C4 [2, 7]: 0.000
- Total single peptide [2, 7]: 14.1
- 1) 95 percentile grouping number A [2, 8]: 0
- 1) 95 percentile grouping number A1 [2, 8]: 0
- 2) Mouse performance B [2, 8]: 1.9
- 2) Mouse performance B1 [2, 8]: 3
- 2) Mouse performance B2 [2, 8]: 1
- 2) Mouse performance B3 [2, 8]: 2
- 3) Timing-sequence response and specificity C [2, 8]: 1
- 3) Timing-sequence response and specificity C1 [2, 8]: 123
- 3) Timing-sequence response and specificity C2 [2, 8]: 1244
- 3) Timing-sequence response and specificity C3 [2, 8]: 2
- 3) Timing-sequence response and specificity C4 [2, 8]: 0.161
- Total single peptide [2, 8]: 4.3
- 1) 95 percentile grouping number A [2, 9]: 4.5
- 1) 95 percentile grouping number A1 [2, 9]: 0.065
- 2) Mouse performance B [2, 9]: 2.5
- 2) Mouse performance B1 [2, 9]: 5
- 2) Mouse performance B2 [2, 9]: 3
- 2) Mouse performance B3 [2, 9]: 1
- 3) Timing-sequence response and specificity C [2, 9]: 1
- 3) Timing-sequence response and specificity C1 [2, 9]: 100
- 3) Timing-sequence response and specificity C2 [2, 9]: 1244
- 3) Timing-sequence response and specificity C3 [2, 9]: 3
- 3) Timing-sequence response and specificity C4 [2, 9]: 0.241
- Total single peptide [2, 9]: 19
- 1) 95 percentile grouping number A [2, 10]: 4.5
- 1) 95 percentile grouping number A1 [2, 10]: 0.065
- 2) Mouse performance B [2, 10]: 2.4
- 2) Mouse performance B1 [2, 10]: 4
- 2) Mouse performance B2 [2, 10]: 4
- 2) Mouse performance B3 [2, 10]: 1
- 3) Timing-sequence response and specificity C [2, 10]: 1
- 3) Timing-sequence response and specificity C1 [2, 10]: 260
- 3) Timing-sequence response and specificity C2 [2, 10]: 1244
- 3) Timing-sequence response and specificity C3 [2, 10]: 3
- 3) Timing-sequence response and specificity C4 [2, 10]: 0.241
- Total single peptide [2, 10]: 18.8
- 1) 95 percentile grouping number A [2, 11]: 5
- 1) 95 percentile grouping number A1 [2, 11]: 0.06
- 2) Mouse performance B [2, 11]: 3.2
- 2) Mouse performance B1 [2, 11]: 4
- 2) Mouse performance B2 [2, 11]: 4
- 2) Mouse performance B3 [2, 11]: 3
- 3) Timing-sequence response and specificity C [2, 11]: 0
- 3) Timing-sequence response and specificity C1 [2, 11]: 153
- 3) Timing-sequence response and specificity C2 [2, 11]: 1244
- 3) Timing-sequence response and specificity C3 [2, 11]: 0
- 3) Timing-sequence response and specificity C4 [2, 11]: 0.000
- Total single peptide [2, 11]: 21.4
